Results from patent US20250089709A1, “CALCIUM PHOSPHATE NANOPARTICLES LOADED WITH JASMONATE TO INDUCE EFFICIENT PLANT DEFENCE RESPONSES” (UNIVERSIDAD DE GRANADA, priority 2021, published 2025).
Values after ≈ are worked out from the molar mass of the structure shown. Read-outs that look alike come from different tables or passages of the source.

What was measured:
[1] = cited from earlier work
B16-F10 cell line [2] = experiment: In vitro cytotoxicity assay (MTS); format: cell-based; conditions: Mus musculus, 48 h, B16-F10 cells, 2 days incubation, read-out: IC50 (half inhibitory concentration, cell viability)
Method: Mouse skin melanoma (B16-F10, ATCC CRL-6322) cell line was purchased from the Cell Bank of CIC-UGR. B16-F10 cells were expanded in Eagle's minimum essential medium (EMEM) with Earle's balanced salt solution (EBSS) supplemented with 2 mM glutamine, and 10% foetal bovine serum (FBS), 1% nonessential amino acids (NEAA) and 1 mM sodium pyruvate (NaP) at 37° C. in a humidified atmosphere of 5% CO2.
Cells were detached from culture flasks by trypsinization, centrifuged and resuspended. Cell number and viability were assessed with the trypan-blue dye exclusion test. Then, 1.0·10^4 cells/well were seeded in a 96 flat transparent well and incubated at 37° C. in a humidified atmosphere of 5% CO2. […] After 2 days incubation, cell viability was evaluated by MTS assay using CellTiter 96® AQueous One Solution Reagent (Promega, Madison, WI) according to the manufacturer's instructions. Briefly, 20 μL of AQueous One Solution Reagent was added to each well and after 2 h of incubation, the absorbance at 490 nm was measured with a spectrophotometer (Infinite® 200 PRO NanoQuant, CIC-UGR). […] Each experiment was done in triplicate.
(§1) Statistical comparisons were analysed with GraphPad Prism software (version 6.0) using one-way or two-way ANOVA and Bonferroni's post hoc test. […] The half inhibitory concentrations (IC50) were calculated by the Graph Pad Prism, using the dose-response sigmoidal curves, p<0.05.

[3] = system: Monastrell (Vitis vinifera L.) grapevines; experiment: In vivo field experiments on vineyards, stilbene analysis in wines; conditions: for total stilbene concentration in wines: two applications
Method: The experiments were conducted in a randomized block design, in which five treatments were applied to three replicates, using 10 vines for each replication. Monastrell (Vitis vinifera L.) grapevines from experimental vineyards located in Cehegin (Murcia, Spain): were sprayed with five treatments, in order to evaluate nano-MeJ efficiency in the field. […] 200 mL of the product was foliarly applied to each plant at veraison. A second application was performed after 7 days. Then, when grapes reached their optimal maturity they were harvested and transported to the winery for winemaking. Vinifications were made in triplicate in 50-L stainless steel tanks using 50 kg of grapes, which were destemmed, crushed, and sulfited (8 g SO2/100 kg). Total acidity was corrected to 5.5 g/L with tartaric acid, and selected yeasts were added (Uvaferm VRB, Lallemand, 25 g/hL). The fermentative pomace contact period was 10 days during which the cap was punched down twice a day, and the temperature and must density were recorded. At the end of alcoholic fermentation, wines were pressed at 1.5 bars in a 75 L tank membrane press and packed in bag-in-box for further analysis.
The extraction method used was described by Guerrero et al. with some modifications. Briefly, 5 mL of wine were extracted with 5 mL of diethyl ether to which 25 μL of internal standard (Trans-4-Hydroxistilbene, 98%) were added. Samples were homogeneized with an Ultraturrax T-25 (Jankel Adnand Kunkel, IKA-Labortechnick, Germany) and stirred at 9600 rpm for 1 minute. […]
Stilbenes were identified and quantified by HPLC. Samples were analysed using a Waters2695 system equipped with a mass detector (Acquity QDA Waters). […] Stilbenes were quantified at 320 nm using trans-resveratrol, trans-piceid, piceatannol and ε-viniferin as external standards.
as §1

B16-F10 cell line [4] = conditions: read-out: MeJ needed to decrease cell viability in a half; same cell line (B16-F10), previous results; cited from earlier work
[5] = In vitro nano-MeJ protection assays (drops at 50° C., UV-Vis and Raman); format: physicochemical; conditions: dried drops after 24 hours at 50° C.
Method: Both of them were kept at 50° C. during 24 h. At scheduled times, the drops were observed using an iScope (Euromex) microscope, in bright field mode and under 40× objective. After 24 hours, the remained samples were analysed by Raman Spectroscopy (JASCO NRS-5100, Jasco International Co. Ltd, Japan) from CIC-UGR. The excitation line was provided by a diode laser emitting at a wavelength of 785 nm. The detector used is a Peltier cooled charge-couple device (CCD, 1024×256 pixels). Before the measurement, the Raman shift of the spectrometer was calibrated using the 520.7 cm-1 peak of crystalline silicon as standard. Each spectrum corresponds to the average of 3 acquisitions of 100 s each. The spectra were linearly base-line corrected for clarity. The same experiment was carried out by depositing on a crystallizer 30 drops of 100 μL of each sample to determine the ratio of protection. […] Then, the sample was centrifuged (12000 rpm, 10 minutes) to remove the nanoparticles before UV-Vis measurements. The ratio of protection (%) was calculated as MeJfinal/MeJinicial×100. Each test was performed in triplicates.

Monastrell grapevine = conditions: cited from earlier work

CC/C=C\CC1C(=O)CCC1CC(=O)OC (racemic) [MeJ, methyl jasmonate]
solubility in water [1]: 340 µg/mL (≈ 1520 µM) | IC50 (B16-F10 cell line [2]): 2200 µM | minimum concentration to observe important effects on stilbenes, elicitor conventionally applied ([3]; foliar application): 10 mM | total stilbene concentration in wines ([3]; foliar spray 5 mM MeJ (MeJ5) at veraison): not enough to produce the same enhancement in stilbene concentration | total stilbene concentration in wines ([3]; foliar spray 10 mM MeJ (MeJ10) at veraison, vs non-treated control): significant (p<0.001) increase | IC50 (B16-F10 cell line [4]): 2600 µM | Raman micro-analysis for MeJ signals [5]: did not show signals assignable to MeJ | total stilbenes in wines (Monastrell grapevine; foliar application of 10 mM, vs non-treated (control) plants): significant increase | foliar concentration needed to promote stilbene production in grapes and wines (Monastrell grapevine; previous field experiments): 10 mM
